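A five-concentration, 48-hour dose response in 96-well plates underlies each endpoint, interpolated linearly between surrounding concentrations. GI50 marks 50% less growth.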 Calls of active or inactive are those of the source. Cut-off read from the data, not from the text of the source: active = GI50 up to about 1.1 µM and inactive = higher.
Key:
Assay in all cases: NCI-60 cell line screen, 48 h
CAKI-1 = tested on: CAKI-1
UACC-62 = tested on: UACC-62
NCI-H460 = tested on: NCI-H460
SR = tested on: SR
OVCAR-8 = tested on: OVCAR-8
NCI-H226 = tested on: NCI-H226
HT-29 = tested on: HT-29
RXF 393 = tested on: RXF 393
MOLT-4 = tested on: MOLT-4
SK-MEL-5 = tested on: SK-MEL-5
Malme-3M = tested on: Malme-3M
MDA-N = tested on: MDA-N
MCF7 = tested on: MCF7
MDA-MB-231 = tested on: MDA-MB-231
RPMI-8226 = tested on: RPMI-8226
OVCAR-5 = tested on: OVCAR-5
BT-549 = tested on: BT-549
SN12C = tested on: SN12C
HCT-116 = tested on: HCT-116
T47D = tested on: T47D
SK-OV-3 = tested on: SK-OV-3
SF-268 = tested on: SF-268
DU-145 = tested on: DU-145
SF-295 = tested on: SF-295
TK-10 = tested on: TK-10
HCT-15 = tested on: HCT-15
MDA-MB-435 = tested on: MDA-MB-435
786-0 = tested on: 786-0
EKVX = tested on: EKVX
UO-31 = tested on: UO-31
SW-620 = tested on: SW-620
SK-MEL-2 = tested on: SK-MEL-2
A498 = tested on: A498
KM12 = tested on: KM12
HCC 2998 = tested on: HCC 2998
K562 = tested on: K562
LOX IMVI = tested on: LOX IMVI
M14 = tested on: M14
COLO 205 = tested on: COLO 205
ACHN = tested on: ACHN
NCI/ADR-RES = tested on: NCI/ADR-RES
HOP-92 = tested on: HOP-92
SNB-75 = tested on: SNB-75
NCI-H522 = tested on: NCI-H522
A549 = tested on: A549
HOP-62 = tested on: HOP-62
OVCAR-3 = tested on: OVCAR-3
Hs-578T = tested on: Hs-578T
UACC-257 = tested on: UACC-257
U-251 = tested on: U-251
IGROV-1 = tested on: IGROV-1
PC-3 = tested on: PC-3
SNB-19 = tested on: SNB-19
OVCAR-4 = tested on: OVCAR-4
NCI-H23 = tested on: NCI-H23
SK-MEL-28 = tested on: SK-MEL-28
CCRF-CEM = tested on: CCRF-CEM
HL-60 = tested on: HL-60
SF-539 = tested on: SF-539

O=c1[nH]c2c(Nc3c4ccccc4nc4ccccc34)c([N+](=O)[O-])c(Nc3c4ccccc4nc4ccccc34)c([N+](=O)[O-])c2[nH]1
GI50 (CAKI-1): 2.15 µM (inactive)
GI50 (UACC-62): 1.39 µM (inactive)
GI50 (NCI-H460): 1.33 µM (inactive)
GI50 (SR): 0.741 µM (active)
GI50 (OVCAR-8): 1.21 µM (inactive)
GI50 (NCI-H226): 2.68 µM (inactive)
GI50 (HT-29): 618 nM (active)
GI50 (RXF 393): 2.42 µM (inactive)
GI50 (MOLT-4): 0.38 µM (active)
GI50 (SK-MEL-5): 2.11 µM (inactive)
GI50 (Malme-3M): 1.57 µM (inactive)
GI50 (MDA-N): 2.36 µM (inactive)
GI50 (MCF7): 1.53 µM (inactive)
GI50 (MDA-MB-231): 2.06 µM (inactive)
GI50 (RPMI-8226): 0.514 µM (active)
GI50 (OVCAR-5): 1.8 µM (inactive)
GI50 (BT-549): 3.51 µM (inactive)
GI50 (SN12C): 1.45 µM (inactive)
GI50 (HCT-116): 0.687 µM (active)
GI50 (T47D): 3.29 µM (inactive)
GI50 (SK-OV-3): 3.03 µM (inactive)
GI50 (SF-268): 1.98 µM (inactive)
GI50 (DU-145): 2.67 µM (inactive)
GI50 (SF-295): 2.41 µM (inactive)
GI50 (TK-10): 2.11 µM (inactive)
GI50 (HCT-15): 1.82 µM
GI50 (MDA-MB-435): 2.15 µM (inactive)
GI50 (786-0): 1.2 µM (inactive)
GI50 (EKVX): 1.82 µM (inactive)
GI50 (UO-31): 1.24 µM (inactive)
GI50 (SW-620): 1.17 µM (inactive)
GI50 (SK-MEL-2): 1.87 µM (inactive)
GI50 (A498): 1.32 µM (inactive)
GI50 (KM12): 2.14 µM (inactive)
GI50 (HCC 2998): 1.73 µM (inactive)
GI50 (K562): 2.59 µM (inactive)
GI50 (LOX IMVI): 1.52 µM (inactive)
GI50 (M14): 1.84 µM (inactive)
GI50 (COLO 205): 1.37 µM (inactive)
GI50 (ACHN): 0.6 µM (active)
GI50 (NCI/ADR-RES): 1.01 µM (active)
GI50 (HOP-92): 1.67 µM (inactive)
GI50 (SNB-75): 2.48 µM (inactive)
GI50 (NCI-H522): 1.09 µM (active)
GI50 (A549): 1.55 µM (inactive)
GI50 (HOP-62): 1.69 µM (inactive)
GI50 (OVCAR-3): 2.15 µM (inactive)
GI50 (Hs-578T): 2.27 µM (inactive)
GI50 (UACC-257): 2.41 µM (inactive)
GI50 (U-251): 2.33 µM (inactive)
GI50 (IGROV-1): 1.69 µM (inactive)
GI50 (PC-3): 2.05 µM (inactive)
GI50 (SNB-19): 2.64 µM (inactive)
GI50 (OVCAR-4): 2.35 µM (inactive)
GI50 (NCI-H23): 1.26 µM (inactive)
GI50 (SK-MEL-28): 3.13 µM (inactive)
GI50 (CCRF-CEM): 0.855 µM (active)
GI50 (HL-60): 2.67 µM (inactive)
GI50 (SF-539): 2.61 µM (inactive)

N=C(N)CCNC(=O)C1CCC(N)=N1 (stereo not drawn)
GI50 (CAKI-1): 10.6 µM (inactive)
GI50 (UACC-62): 14 µM (inactive)
GI50 (NCI-H460): 7.55 µM (inactive)
GI50 (SR): 18.5 µM (inactive)
GI50 (OVCAR-8): 7.28 µM (inactive)
GI50 (NCI-H226): 18.1 µM (inactive)
GI50 (HT-29): 5200 nM (inactive)
GI50 (RXF 393): 35.1 µM (inactive)
GI50 (MOLT-4): 12.2 µM (inactive)
GI50 (SK-MEL-5): 16.4 µM (inactive)
GI50 (Malme-3M): 7.5 µM (inactive)
GI50 (MDA-N): 21.4 µM (inactive)
GI50 (MCF7): 16.2 µM (inactive)
GI50 (MDA-MB-231): 14.7 µM (inactive)
GI50 (RPMI-8226): 29.9 µM (inactive)
GI50 (OVCAR-5): 19.1 µM (inactive)
GI50 (BT-549): 43.4 µM (inactive)
GI50 (SN12C): 5.27 µM (inactive)
GI50 (HCT-116): 13.1 µM (inactive)
GI50 (T47D): 6.5 µM (inactive)
GI50 (SK-OV-3): 9.59 µM (inactive)
GI50 (SF-268): 10.3 µM (inactive)
GI50 (DU-145): 4.98 µM (inactive)
GI50 (SF-295): 18.9 µM (inactive)
GI50 (TK-10): 22.7 µM (inactive)
GI50 (HCT-15): 37.9 µM
GI50 (MDA-MB-435): 31.5 µM (inactive)
GI50 (786-0): 13.1 µM (inactive)
GI50 (EKVX): 9.12 µM (inactive)
GI50 (UO-31): 18.2 µM (inactive)
GI50 (SW-620): 22.1 µM (inactive)
GI50 (SK-MEL-2): 27.2 µM (inactive)
GI50 (A498): 16 µM (inactive)
GI50 (KM12): 6.79 µM (inactive)
GI50 (HCC 2998): 4.95 µM (inactive)
GI50 (K562): 13.2 µM (inactive)
GI50 (LOX IMVI): 15.8 µM (inactive)
GI50 (M14): 24.7 µM (inactive)
GI50 (COLO 205): 5.61 µM (inactive)
GI50 (ACHN): 13.8 µM (inactive)
GI50 (NCI/ADR-RES): 26.2 µM (inactive)
GI50 (HOP-92): 11.6 µM (inactive)
GI50 (SNB-75): 12.2 µM (inactive)
GI50 (NCI-H522): 23 µM (inactive)
GI50 (A549): 6.49 µM (inactive)
GI50 (HOP-62): 4.38 µM (inactive)
GI50 (OVCAR-3): 9.82 µM (inactive)
GI50 (Hs-578T): 8.36 µM (inactive)
GI50 (UACC-257): 13.7 µM (inactive)
GI50 (U-251): 7.89 µM (inactive)
GI50 (IGROV-1): 8.49 µM (inactive)
GI50 (PC-3): 6 µM (inactive)
GI50 (SNB-19): 6.76 µM (inactive)
GI50 (OVCAR-4): 9.48 µM (inactive)
GI50 (NCI-H23): 16.1 µM (inactive)
GI50 (SK-MEL-28): 19.2 µM (inactive)
GI50 (CCRF-CEM): 12.5 µM (inactive)
GI50 (HL-60): 37.5 µM (inactive)
GI50 (SF-539): 11.6 µM (inactive)

— ChEMBL document CHEMBL1201862, “PubChem BioAssay data set” (2004)
